Values after ≈ are worked out from the molar mass of the structure shown.
Legend:
Experiment in all cases: Minimum inhibitory concentration (MIC), serial dilution on Iso-Sensitest agar
Type in all cases: cell-based
[1] = test system: Enterobacter cloacae 2427; settings: 37° C., about 20 hours
Method: (§1) The minimum inhibitory concentrations (MIC) were determined by means of serial dilution methods on Iso-Sensitest agar (Oxoid). For each substance to be tested, a series of agar plates was prepared which contained concentrations of the active compound which decreased by a double dilution on each occasion. The agar plates were inoculated with a Multipoint inoculator (Denley). For the inoculation, overnight cultures of the pathogens were used which had previously been diluted so that each inoculation spot contained about 10^4 colony-forming particles. The inoculated agar plates were incubated at 37° C. and the organism growth was recorded after about 20 hours. The MIC value (μg/ml) indicates the lowest concentration of active compound at which no growth could be detected with the naked eye.

[2] = test system: Staphylococcus aureus 1756; settings: 37° C., about 20 hours
Method: as §1

E. coli Neumann = settings: Escherichia coli, 37° C., about 20 hours
Method: as §1

[3] = test system: Entercoccus faecalis 27 101; settings: 37° C., about 20 hours
Method: as §1

Providencia sp. 12012 = settings: 37° C., about 20 hours
Method: as §1

Klebsiella sp. 8085 = settings: 37° C., about 20 hours
Method: as §1

[4] = test system: Staphylococcus aureus ICB 25701; settings: ICB25701, 37° C., about 20 hours
Method: as §1

Micrococcus luteus 9341 = settings: 37° C., about 20 hours
Method: as §1

[5] = test system: Pseudomonas aeruginosa Walter; settings: 37° C., about 20 hours
Method: as §1

Morganella morg. 932 = settings: 37° C., about 20 hours
Method: as §1

SMILES | MIC [1] [µg/mL] | MIC [2] [µg/mL] | MIC (E. coli Neumann) [µg/mL] | MIC [3] [µg/mL] | MIC (Providencia sp. 12012) [µg/mL] | MIC (Klebsiella sp. 8085) [µg/mL] | MIC [4] [µg/mL] | MIC (Micrococcus luteus 9341) [µg/mL] | MIC [5] [µg/mL] | MIC (Morganella morg. 932) [µg/mL]
N[C@@H]1CC=C[C@@H]2CN(c3cc4c(cc3F)c(=O)c(C(=O)O)cn4C3CC3)C[C@@H]12 (relative stereo) [Example 6, (1'SR,2'RS,6'SR)-7-(2'-amino-8'-azahicyclo[4.3.0]non-4'-en-8'-yl)-1-cyclopropyl-6-fluoro-1,4-dihydro-4-oxo-3-quinolinecarboxylic acid] | 0.06 (≈ 0.156 µM) | ≤ 0.015 | ≤ 0.015 | 0.03 (≈ 0.0782 µM) | 0.03 (≈ 0.0782 µM) | 0.03 (≈ 0.0782 µM) | 0.125 (≈ 0.326 µM) | 0.06 (≈ 0.156 µM) | 0.5 (≈ 1.3 µM) | 
CN[C@@H]1CC=C[C@@H]2CN(c3c(F)cc4c(=O)c(C(=O)O)cn(C5CC5)c4c3F)C[C@H]21 (relative stereo) [Example 22, (1'SR,2'RS,6'SR)-1-Cyclopropyl-6,8-difluoro-1,4-dihydro-7-(2'-methylamino-8'-azabicyclo[4.3-0]non-4'-en-8'-yl)-4-oxo-3-quinolinecarboxylic acid] | 0.125 (≈ 0.301 µM) | ≤ 0.015 | 0.03 (≈ 0.0722 µM) | 0.03 (≈ 0.0722 µM) | 0.125 (≈ 0.301 µM) | 0.06 (≈ 0.144 µM) | 0.125 (≈ 0.301 µM) | 0.125 (≈ 0.301 µM) | 2 (≈ 4.81 µM) | 0.125 (≈ 0.301 µM)
N[C@@H]1CC=C[C@@H]2CN(c3c(F)cc4c(=O)c(C(=O)O)cn(C5CC5)c4c3Cl)C[C@@H]12 (relative stereo) [Example 12, (1'SR,2'RS,6'SR)-7-(2'-Amino-8'-azabicyclo[4.3.0]non-4'-en-8'-yl)-8-chloro-1-cyclopropyl-6-fluoro-1,4-dihydro-4-oxo-3-quinolinecarboxylic acid] | 0.015 (≈ 0.0359 µM) | ≤ 0.0019 | 0.0039 (≈ 0.00933 µM) | 0.0078 (≈ 0.0187 µM) | 0.015 (≈ 0.0359 µM) | 0.015 (≈ 0.0359 µM) | 0.015 (≈ 0.0359 µM) | 0.015 (≈ 0.0359 µM) | 0.25 (≈ 0.598 µM) | 0.015 (≈ 0.0359 µM)
Nc1cccc2c1CN(c1c(F)cc3c(=O)c(C(=O)O)cn(C4CC4)c3c1F)C2 [*, 7-(4-amino-1,3-dihydro-isoindol-2-yl)-1-cyclopropyl-6,8-difluoro-1,4-dihydro-4-oxo-3-quinolinecarboxylic acid, reference compound] |  | 0.03 (≈ 0.0755 µM) | 0.5 (≈ 1.26 µM) | 0.5 (≈ 1.26 µM) | 1 (≈ 2.52 µM) | 4 (≈ 10.1 µM) |  |  | > 128 | 1 (≈ 2.52 µM)

Now from value to compound:

MIC [1] [µg/mL] | MIC [2] [µg/mL] | MIC (E. coli Neumann) [µg/mL] | MIC [3] [µg/mL] | MIC (Providencia sp. 12012) [µg/mL] | MIC (Klebsiella sp. 8085) [µg/mL] | MIC [4] [µg/mL] | MIC (Micrococcus luteus 9341) [µg/mL] | MIC [5] [µg/mL] | MIC (Morganella morg. 932) [µg/mL] | SMILES
0.015 (≈ 0.0374 µM) | 0.0039 (≈ 0.00972 µM) | 0.0078 (≈ 0.0194 µM) | 0.15 (≈ 0.374 µM) | 0.015 (≈ 0.0374 µM) | 0.015 (≈ 0.0374 µM) | 0.03 (≈ 0.0747 µM) | 0.015 (≈ 0.0374 µM) | 0.25 (≈ 0.623 µM) | 0.015 (≈ 0.0374 µM) | N[C@@H]1CC=C[C@@H]2CN(c3c(F)cc4c(=O)c(C(=O)O)cn(C5CC5)c4c3F)C[C@@H]12 (relative stereo) [Example 4, (1'SR,2'RS,6'SR)-7-(2'-Amino-8'-azabicyclo[4.3.0]non-4'-en-8'-yl)-1-cyclopropyl-6,8-difluoro-1,4-hydro-4-oxo-3-quinolinecarboxylic acid]
0.125 (≈ 0.313 µM) | 0.0078 (≈ 0.0195 µM) | 0.03 (≈ 0.0751 µM) | 0.03 (≈ 0.0751 µM) | 0.125 (≈ 0.313 µM) | 0.125 (≈ 0.313 µM) | 0.25 (≈ 0.626 µM) | 0.125 (≈ 0.313 µM) | 1 (≈ 2.5 µM) | 0.125 (≈ 0.313 µM) | CC1COc2c(N3C[C@H]4[C@H](N)CC=C[C@@H]4C3)c(F)cc3c(=O)c(C(=O)O)cn1c23 (stereo partly drawn) [Example 14, (1'SR,2'RS,6'SR)-10-(2'-Amino-8'-azabicyclo [4.3.0]non-4'-en-8'-yl)-9-fluoro-2,3-dihydro-3-methyl-7-oxo-7H-pyrido[1,2,3-de][1,4]benzoxazine-6-carboxylic acid]
0.03 (≈ 0.072 µM) | ≤ 0.015 | ≤ 0.015 | ≤ 0.015 | ≤ 0.015 | 0.03 (≈ 0.072 µM) | 0.03 (≈ 0.072 µM) | 0.06 (≈ 0.144 µM) | 1 (≈ 2.4 µM) | 0.03 (≈ 0.072 µM) | Nc1c(F)c(N2C[C@H]3[C@H](N)CC=C[C@@H]3C2)c(F)c2c1c(=O)c(C(=O)O)cn2C1CC1 (relative stereo) [Example 19, (1 'SR,2 'RS,6 'SR)-5-Amino-7-(2 '-amino-8 '-azabicyclo[4.3.0]non-4'-en-8'-yl)-1-cyclopropyl-6,8-difluoro-1,4-dihydro-4-oxo-3-quinolinecarboxylic acid]

From patent US5556979A, “7-isoindolinyl-naphthyridone derivatives, compositions and anti-bacterial use thereof” (Bayer Aktiengesellschaft, priority 1992, dated 1996)
